Results published in patent US8791104B2, “1,4-benzodiazepine-2,5-diones with therapeutic properties” (The Regents of the University of Michigan, priority 2005, dated 2014).

Columns and labels:
ATP synthesis = assay: Cellular ATP synthesis in the presence of compounds; type: cell-based; settings: compounds exposed to cells (FIG. 6)
Experimental: The following four compounds were exposed to cells, and ATP synthesis measured: […]

animal models of lupus = settings: in vivo; cited from earlier work
[1] = target: T1, oligomycin sensitivity conferring protein (OSCP) component of the mitochondrial F1F0-ATPase (Homo sapiens, UniProt P48047); settings: cited from earlier work
T1 sequence (P48047 24-213): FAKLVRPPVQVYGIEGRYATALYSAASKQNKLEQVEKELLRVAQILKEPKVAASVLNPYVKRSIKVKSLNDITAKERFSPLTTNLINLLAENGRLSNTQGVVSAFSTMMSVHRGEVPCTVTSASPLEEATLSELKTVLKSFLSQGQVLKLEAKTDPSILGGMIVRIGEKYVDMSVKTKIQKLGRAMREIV

[2] = tested on: mitochondrial F1F0-ATPase; settings: cited from earlier work

CN1C(=O)C(c2ccccc2)NC(c2ccc(O)cc2)c2cc(Cl)ccc21 (stereo not shown)
inhibition of ATP synthesis (ATP synthesis): did inhibit ATP synthesis

CN1C(=O)C(Cc2ccc3ccccc3c2)N=C(c2ccc(O)cc2)c2cc(Cl)ccc21 (stereo not shown) [Bz-423]
activity in animal models of lupus (animal models of lupus): potent activity in animal models of lupus | binding to OSCP [1]: binds to the oligomycin sensitivity conferring protein (OSCP) | inhibition of the F1F0-ATPase [2]: inhibits the enzyme
